The assay concerns the target T1, B2 bradykinin receptor (Cavia porcellus, UniProt O70526).
T1 sequence (O70526 whole entry): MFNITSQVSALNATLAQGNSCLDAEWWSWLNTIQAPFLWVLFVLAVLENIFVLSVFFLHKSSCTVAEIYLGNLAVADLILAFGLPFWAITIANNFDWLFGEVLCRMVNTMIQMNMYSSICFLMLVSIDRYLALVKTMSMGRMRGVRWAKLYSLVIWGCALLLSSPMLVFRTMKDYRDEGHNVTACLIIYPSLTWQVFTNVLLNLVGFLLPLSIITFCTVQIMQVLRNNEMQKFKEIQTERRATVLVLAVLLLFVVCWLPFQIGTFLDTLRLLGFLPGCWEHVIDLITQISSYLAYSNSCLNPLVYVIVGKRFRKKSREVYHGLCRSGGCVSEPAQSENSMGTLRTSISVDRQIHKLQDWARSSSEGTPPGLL
Put plainly: In vitro antagonistic activity for Bradykinin receptor B2 by guinea pig ileal membrane receptor assay. The class given is functional.

For the molecule `NC(N)=NCCC[C@@H](N)C(=O)N[C@@H](CCCN=C(N)N)C(=O)N1CCC[C@H]1C(=O)N1C[C@H](O)C[C@H]1C(=O)NCC(=O)N[C@@H](Cc1cccs1)C(=O)N[C@@H](CO)C(=O)N1Cc2ccccc2C[C@@H]1C(=O)N1[C@H](C(=O)N[C@@H](CCCN=C(N)N)C(=O)O)C[C@@H]2CCCC[C@@H]21` [ICATIBANT], the IC50 was 1.07 nM.

The values are drawn from ChEMBL document CHEMBL1128686, “Technetium-99m-labeled HOE 140: a potential bradykinin B2 receptor imaging agent” (J Med Chem, 1995).
